Data taken from PMC3362575, “Synthesis and Biological Evaluation of Phenanthrenes as Cytotoxic Agents with Pharmacophore Modeling and ChemGPS-NP Prediction as Topo II Inhibitors” (PLoS ONE, 2012).
In brackets after ≈: the same amount, converted by molar mass. Where two headings read alike, the source gives them in different places.

Tests used:
human topoisomerase IIα = tested on: human topoisomerase IIα; design: method as in PMID 15182198; conditions: cited from earlier work
Hep3B = assay: MTT cytotoxicity assay, Hep3B; format: cell-based, human; conditions: Homo sapiens, Hep3B
Experimental: (§1) The cytotoxic assay of 11 naturally occurring and 19 synthesized phenanthrenes was carried out on a diverse set of human liver (HepG2 and Hep3B), oral (Ca9-22), lung (A549) and breast (MEA-MB-231 and MCF7) cancer cell lines, and a human fetal lung fibroblast (MRC-5) cell line (Tables 1 and 2).
(§2) Compounds were tested against human liver (HepG2 and Hep3B), oral (Ca9-22), lung (A549), breast (MEA-MB-231 and MCF7) cancer cell lines, and the human fetal lung fibroblast (MRC-5) cell line using an established colorimetric MTT assay protocol. The absorbance was measured at 550 nm using a microplate reader. The IC50 is the concentration of agent that reduced cell growth by 50% under the experimental conditions.

Ca9-22 = assay: MTT cytotoxicity assay, Ca9-22; format: cell-based, human; conditions: Homo sapiens
Experimental: as §1, §2

HepG2 = assay: MTT cytotoxicity assay, HepG2; format: cell-based, human; conditions: Homo sapiens
Experimental: as §1, §2

A549 = assay: MTT cytotoxicity assay, A549; format: cell-based, human; conditions: Homo sapiens
Experimental: as §1, §2

MRC-5 = assay: MTT cytotoxicity assay, MRC-5 fetal lung fibroblast; format: cell-based, human; conditions: Homo sapiens, normal fetal lung fibroblast
Experimental: as §1, §2

MDA-MB-231 = assay: MTT cytotoxicity assay, MDA-MB-231; format: cell-based, human; conditions: Homo sapiens
Experimental: as §1, §2

MCF-7 = assay: MTT cytotoxicity assay, MCF-7; format: cell-based, human; conditions: Homo sapiens; for IC50: MTT; for MCF-7 activity class (from IC50): MCF7, Table S3, read-out: Scale Exptl. (MCF-7 activity class)
Experimental: as §1, §2
The pharmacophore modeling with Catalyst HypoGen was performed via Discovery Studio 2.1 (Accelrys, San Diego, CA, USA). Twenty-nine phenanthrene derivatives were collected from the natural plant, C. arisanensis, and from chemical synthesis (Figure 2). Cytotoxicity against MCF-7 cells was determined by the MTT assay and the concentration (µg/mL) of test compound which inhibited 50% of the cancer cells (IC50) was used in the generation of the pharmacophore model. An IC50 value of >20 µg/mL was defined as 20 µg/mL. All experimental IC50 values spanned about 2–3 orders of magnitude from 0.09 to 20 µg/mL. The 2D/3D structures of compounds were generated using ChemBioOffice 2008 (Cambridge Scientic Computing, Cambridge, Massachusetts, USA) and then optimized in a Dreiding force field. The conformational ensemble of each compound was generated using the best conformational analysis method based on a CHARMM force field with a 20 kcal/mol energy threshold above the global minimum. A maximum limit of 255 conformations was used to cover maximum conformational space. The best 3D arrangements of chemical functionalities should explain the activity variations among the 29 compounds. Thirty runs with different parameters were performed for the best pharmacophore hypothesis. Four chemical features, including hydrogen-bond acceptor (HBA), hydrogen-bond donor (HBD), hydrophobic (HYD), and aromatic ring (AR) features, were also tested during the building of pharmacophore hypotheses (Table S1; Text S1). The best hypotheses were selected via a correlation and a cost analysis in Catalyst HypoGen.

human cancer cell lines = assay: MTT cytotoxicity assay, ranges over the cancer cell line panel; format: cell-based; conditions: for IC50: Homo sapiens
Experimental: as §1, §2

topoisomerase IIα = target: T1, topoisomerase IIα (Homo sapiens, UniProt P11388); assay: Topoisomerase II DNA cleavage assay (Topo II Drug Screening Kit); format: biochemical; conditions: for formation of linear DNA (Topo IIα DNA cleavage complex): pHOT plasmid DNA, topoisomerase IIα
T1 construct: purchased TopoGEN, Inc
Experimental: From the ChemGPS-NP analysis, it seems that the MOA for 3-methoxy-1,4-PQs might processes cytotoxicity as a topoisomerase II inhibitor.
Figure 10 Topoisomerase II DNA cleavage assay. An in vitro assay was used to assess the effect of compounds 6a and 5a on the DNA cleavage activity of human TopoII. Etoposide was the positive control. Control lane: TopoIIα + plasmid DNA. DMSO lane: TopoIIα + plasmid DNA + DMSO.
Topoisomerase II assay was performed by using a Topo II Drug Screening Kit (TopoGEN, Inc.). In brief, 0.1 µg of pHOT plasmid DNA was incubated with 2 units of topoisomerase IIα in 20 µL assay buffer at 37°C for 40 min in the presence of tested compounds (6a, 5a) and control drug, etoposide, respectively. 2 µL of 10% SDS and 2.5 µL of 10 mg/mL proteinase K were added into the reaction sample and then incubated for 30 min at 37°C to digest topoisomerase IIα. The samples were mixed with 2 µL of loading buffer and cleaned up by adding an equal volume of phenol:chloroform:isoamyl alcohol (25∶24∶1) according to the description. The sample was mixed by vortex and centrifuge for 10 sec. An aliquot (10 µL) of the upper aqueous part was analyzed by electrophoresis with 2% agarose gel containing 0.5 µg/mL of ethidium bromide.

[1] = Table 2, synthesized phenanthrenes
[2] = Ca9-22, Table 2, synthesized phenanthrenes
[3] = HepG2, Table 2, synthesized phenanthrenes
[4] = A549, Table 2, synthesized phenanthrenes
[5] = MRC5, Table 2, synthesized phenanthrenes
[6] = MDA-MB-231, Table 2, synthesized phenanthrenes
[7] = MCF7, Table 2, synthesized phenanthrenes
[8] = range over the cancer cell lines tested, read-out: IC50 against various / all human cancer cell lines
[9] = HepG2, range over five cancer cell lines, not including HepG2, read-out: IC50 against five cancer cell lines

T1 sequence (P11388 whole entry): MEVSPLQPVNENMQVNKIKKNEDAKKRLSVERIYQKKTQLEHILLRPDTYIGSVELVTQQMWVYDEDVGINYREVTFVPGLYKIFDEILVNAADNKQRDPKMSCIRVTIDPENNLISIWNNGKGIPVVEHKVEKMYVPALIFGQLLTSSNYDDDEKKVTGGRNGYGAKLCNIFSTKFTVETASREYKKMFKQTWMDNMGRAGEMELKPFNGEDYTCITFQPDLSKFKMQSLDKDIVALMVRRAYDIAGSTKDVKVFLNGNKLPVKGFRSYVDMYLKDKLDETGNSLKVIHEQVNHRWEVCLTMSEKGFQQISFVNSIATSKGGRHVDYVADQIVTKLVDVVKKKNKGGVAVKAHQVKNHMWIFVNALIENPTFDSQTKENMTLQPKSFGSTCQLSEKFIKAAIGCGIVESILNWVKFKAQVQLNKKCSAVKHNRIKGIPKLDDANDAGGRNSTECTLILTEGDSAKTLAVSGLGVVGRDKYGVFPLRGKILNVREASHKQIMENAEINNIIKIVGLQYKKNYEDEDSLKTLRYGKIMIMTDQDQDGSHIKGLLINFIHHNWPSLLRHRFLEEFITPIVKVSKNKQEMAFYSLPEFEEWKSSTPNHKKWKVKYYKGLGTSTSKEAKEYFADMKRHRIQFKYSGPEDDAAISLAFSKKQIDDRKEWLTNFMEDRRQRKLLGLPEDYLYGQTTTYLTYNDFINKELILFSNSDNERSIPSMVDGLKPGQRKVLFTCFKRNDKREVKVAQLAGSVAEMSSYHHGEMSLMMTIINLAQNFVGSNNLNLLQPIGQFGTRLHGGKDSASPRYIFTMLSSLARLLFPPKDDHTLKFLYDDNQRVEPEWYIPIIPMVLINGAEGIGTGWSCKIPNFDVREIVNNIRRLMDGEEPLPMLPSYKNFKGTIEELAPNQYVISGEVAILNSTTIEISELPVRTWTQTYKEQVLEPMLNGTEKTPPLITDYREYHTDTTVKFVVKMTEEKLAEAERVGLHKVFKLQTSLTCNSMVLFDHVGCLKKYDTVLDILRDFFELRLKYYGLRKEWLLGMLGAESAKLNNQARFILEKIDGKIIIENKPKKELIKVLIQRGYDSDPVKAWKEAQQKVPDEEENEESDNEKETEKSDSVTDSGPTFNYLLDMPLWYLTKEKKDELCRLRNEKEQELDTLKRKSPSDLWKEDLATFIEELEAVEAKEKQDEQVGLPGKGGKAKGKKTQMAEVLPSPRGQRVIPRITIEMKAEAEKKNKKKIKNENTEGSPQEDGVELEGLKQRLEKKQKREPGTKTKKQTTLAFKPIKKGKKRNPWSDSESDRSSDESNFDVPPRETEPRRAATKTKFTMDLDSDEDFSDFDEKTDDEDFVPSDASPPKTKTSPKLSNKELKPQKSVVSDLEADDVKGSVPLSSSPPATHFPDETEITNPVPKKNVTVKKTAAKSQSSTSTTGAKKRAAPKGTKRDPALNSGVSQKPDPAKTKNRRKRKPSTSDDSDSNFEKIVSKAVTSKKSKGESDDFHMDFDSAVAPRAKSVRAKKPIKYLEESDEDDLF

| Structure (SMILES) | IC50 (Hep3B; [1]) | IC50 (Ca9-22; [2]) | IC50 (HepG2; [3]) | IC50 (A549; [4]) | IC50 (MRC-5; [5]) | IC50 (MDA-MB-231; [6]) | melting point | IC50 (MCF-7; [7]) | MCF-7 activity class (from IC50) (MCF-7) | IC50 (human cancer cell lines; [8]) | other results |
| --- | --- | --- | --- | --- | --- | --- | --- | --- | --- | --- | --- |
| O=C1C=CC(=O)C=C1 [1,4-benzoquinone] |  |  |  |  |  |  |  |  |  |  | poisoning of human topoisomerase IIα (human topoisomerase IIα): poison human topoisomerase IIα |
| COc1cc(OC)c2c3c(ccc2c1)C(=O)C=CC3=O [Compound 4b, 5,7-Dimethoxy-1,4-phenanthrenequinone] | 12.1 ± 0.33 µg/mL (≈ 45.1 µM) | 3.45 ± 0.03 µg/mL (≈ 12.9 µM) | 18.64 ± 0.14 µg/mL (≈ 69.5 µM) | > 20 µg/mL | > 20 µg/mL | 7.09 ± 0.01 µg/mL (≈ 26.4 µM) | 121 °C | 15.63 ± 0.01 µg/mL (≈ 58.3 µM) | 1 to 20 µg/mL |  |  |
| COC1=CC(=O)c2ccc3cc(OC)c(OC)c(OC)c3c2C1=O [Compound 5a, 3,5,6,7-Tetramethoxy-1,4-phenanthrenequinone] | 4.67 ± 0.81 µg/mL (≈ 14.2 µM) | 5.99 ± 0.24 µg/mL (≈ 18.2 µM) | 4.65 ± 0.07 µg/mL (≈ 14.2 µM) | 11 ± 0.44 µg/mL (≈ 33.6 µM) | > 20 µg/mL | > 20 µg/mL |  | 14.3 ± 0.5 µg/mL (≈ 43.5 µM) | 1 to 20 µg/mL |  | activity against all human cancer cell lines (human cancer cell lines; all human cancer cell lines): marginal activities; inhibition on Topo IIα (supercoiled DNA instead of relaxed) (topoisomerase IIα; 200 µmol/L): had the similar effect; formation of linear DNA (Topo IIα DNA cleavage complex) (topoisomerase IIα): induced the formation of linear DNA |
| COc1cc(OC)c2c3c(ccc2c1)C(=O)CC(OC)(OC)C3=O [Compound 5c, 3,3,5,7-tetramethoxy-2,3-dihydro-1,4-phenanthrenequinone] | 13.8 ± 0.38 µg/mL (≈ 41.7 µM) | 9.07 ± 0.09 µg/mL (≈ 27.5 µM) | > 20 µg/mL | 12 ± 2.18 µg/mL (≈ 36.3 µM) | > 20 µg/mL | 19.1 ± 0.43 µg/mL (≈ 57.9 µM) | 179 °C | 11.1 ± 0.02 µg/mL (≈ 33.6 µM) | 1 to 20 µg/mL |  |  |
| COC1=CC(=O)c2ccc3c(-c4c(OC)c(OC)c(OC)c5c6c(ccc45)C(OC)=CC(=O)C6=O)c(OC)c(OC)c(OC)c3c2C1=O [Compound 5f, 3,5,6,7,1′,5′,6′,7′-octamethoxy-[8,8′]bi-1,4,5′,6′-phenanthrenequinone] | 7.88 ± 0.19 µg/mL (≈ 12 µM) | 4.57 ± 0.03 µg/mL (≈ 6.98 µM) | 19.6 ± 0.74 µg/mL (≈ 30 µM) | > 20 µg/mL | > 20 µg/mL | 4.74 ± 0.02 µg/mL (≈ 7.24 µM) | 268 °C | 14.8 ± 0.21 µg/mL (≈ 22.6 µM) | 1 to 20 µg/mL |  |  |
| COC1=CC(=O)c2ccc3cc(OC)c(OC)c(O)c3c2C1=O [Compound 6a, 5-Hydroxy-3,6,7-trimethoxy-1,4-phenanthrenequinone] | 0.19 ± 0.01 µg/mL (≈ 0.605 µM) | 0.59 ± 0.01 µg/mL (≈ 1.88 µM) | 0.08 µg/mL (≈ 0.255 µM) | 0.14 ± 0.02 µg/mL (≈ 0.445 µM) | 0.6 ± 0.05 µg/mL (≈ 1.91 µM) | 0.89 ± 0.01 µg/mL (≈ 2.83 µM) |  | 0.2 µg/mL (≈ 0.636 µM) | < 1 µg/mL | 0.08 to 1.66 µg/mL (≈ 0.255 to 5.28 µM) | fold greater cytotoxic activity than denbinobin (6b) (human cancer cell lines; HepG2, Hep3B, Ca9-22, A549, MEA-MB-231 and MCF7 cancer cell lines): up to 7 fold; IC50 (Hep3B; Table 1, natural phenanthrenes): 0.22 µg/mL (≈ 0.7 µM); IC50 (Ca9-22; Ca9-22, Table 1, natural phenanthrenes): 0.17 ± 0.01 µg/mL (≈ 0.541 µM); IC50 (HepG2; HepG2, Table 1, natural phenanthrenes): 0.21 ± 0.01 µg/mL (≈ 0.668 µM); IC50 (A549; A549, Table 1, natural phenanthrenes): 0.11 µg/mL (≈ 0.35 µM); IC50 (MRC-5; MRC5, Table 1, natural phenanthrenes): 0.65 µg/mL (≈ 2.07 µM); IC50 (MDA-MB-231; MDA-MB-231, Table 1, natural phenanthrenes): 0.64 ± 0.06 µg/mL (≈ 2.04 µM); inhibition on Topo IIα (supercoiled DNA instead of relaxed) (topoisomerase IIα; 100 µmol/L): showed the inhibition on Topo IIα; formation of linear DNA (Topo IIα DNA cleavage complex) (topoisomerase IIα): induced the formation of linear DNA; IC50 (MCF-7; MCF7, Table 1, natural phenanthrenes): 0.09 µg/mL (≈ 0.286 µM) |
| COC1=CC(=O)c2ccc3cc(OC)c(OC)c(OC(C)=O)c3c2C1=O [Compound 7a, 5-Acetoxy-3,6,7-trimethoxy-1,4-phenanthrenequinone] | 0.36 ± 0.14 µg/mL (≈ 1.01 µM) | 0.84 ± 0.05 µg/mL (≈ 2.36 µM) | 11.3 ± 0.14 µg/mL (≈ 31.7 µM) | 0.6 ± 0.01 µg/mL (≈ 1.68 µM) | 1.14 ± 0.01 µg/mL (≈ 3.2 µM) | 1.13 ± 0.05 µg/mL (≈ 3.17 µM) |  | 0.16 µg/mL (≈ 0.449 µM) | < 1 µg/mL | 0.08 to 1.66 µg/mL (≈ 0.225 to 4.66 µM) | IC50 (human cancer cell lines; [9]): 0.16 to 1.66 µg/mL (≈ 0.449 to 4.66 µM) |
| COC1=CC(=O)c2ccc3cc(OC)cc(OC(C)=O)c3c2C1=O [Compound 7b, 5-acetoxy-3,7-dimethoxy-1,4-phenanthrenequinone] | 0.6 ± 0.11 µg/mL (≈ 1.84 µM) | 1.55 ± 0.2 µg/mL (≈ 4.75 µM) | 13.2 ± 0.25 µg/mL (≈ 40.5 µM) | 1.66 ± 0.01 µg/mL (≈ 5.09 µM) | 2.64 ± 0.06 µg/mL (≈ 8.09 µM) | 1.61 ± 0.04 µg/mL (≈ 4.93 µM) |  | 0.53 ± 0.03 µg/mL (≈ 1.62 µM) | < 1 µg/mL | 0.08 to 1.66 µg/mL (≈ 0.245 to 5.09 µM) | IC50 (human cancer cell lines; [9]): 0.16 to 1.66 µg/mL (≈ 0.49 to 5.09 µM) |
| COc1cc(O)c2c(ccc3c(OC)ccc(OC)c32)c1 [Compound 9b, 5-hydroxy-1,4,7-trimethoxy-phenanthrene] | > 20 µg/mL | > 20 µg/mL | > 20 µg/mL | > 20 µg/mL | > 20 µg/mL | > 20 µg/mL | 71 °C | > 20 µg/mL | > 20 µg/mL |  |  |
